From patent US11312727B1, “Macrocyclic flu endonuclease inhibitors” (Janssen BioPharma, Inc., priority 2018, dated 2022)

Columns and labels:
[1] = system: Influenza strain A549 A/WSN/33 (H1N1); test: microbe, parasite or virus in culture; type: cell-based; conditions: Influenza A virus, A549, 20 h, A549 cells, influenza A/WSN/33 (H1N1), 20 hours incubation; read-out: A549_A(H1N1) EC50
[2] = in vitro; conditions: human, CC50, uninfected A549 cells, CellTiter-Glo

Row | Structure (SMILES) | EC50 [1] | CC50 [2]
1 | O=C1c2c(O)c(=O)ccn2N2CN1C/C=C\CCc1ccccc1[C@H]2c1ccccc1 (single isomer, unassigned) [Compound 21A, (17*R,*Z)-4-hydroxy-16-phenyl-7,10,11,16-tetrahydro-6,17-methanobenzo[k]pyrido[1,2-b][1,2,5]triazacyclotridecine-3,5-dione] | 0.005 µM | > 1 µM
2 | O=C1c2c(O)c(=O)ccn2N2CN1C/C=C\CCc1ccccc1[C@@H]2c1ccccc1 (single isomer, unassigned) [Compound 21B, (17*S,*Z)-4-hydroxy-16-phenyl-7,10,11,16-tetrahydro-6,17-methanobenzo[k]pyrido[1,2-b][1,2,5]triazacyclotridecine-3,5-dione] | 0.815 µM | > 1 µM
3 | O=C1c2c(O)c(=O)ccn2N2CN1C/C=C\COc1ccc(F)cc1[C@H]2c1ccccc1 (single isomer, unassigned) [Compound 22A, (18*R,Z)-2-fluoro-12-hydroxy-18-phenyl-6,9-dihydro-18H-10,17-methanobenzo[b]pyrido[1,2-f][1]oxa[5,6,9]triazacyclotridecine-11,13-dione] | 9.54 µM | > 1 µM
4 | O=C1c2c(O)c(=O)ccn2N2CN1C/C=C\COc1ccc(F)cc1[C@@H]2c1ccccc1 (single isomer, unassigned) [Compound 22B, (18*S,Z)-2-fluoro-12-hydroxy-18-phenyl-6,9-dihydro-18H-10,17-methanobenzo[b]pyrido[1,2-f][1]oxa[5,6,9]triazacyclotridecine-11,13-dione] | 0.012 µM | > 1 µM
5 | O=C1c2c(O)c(=O)ccn2N2CN1CCCCCc1ncccc1[C@H]2c1ccccc1 (single isomer, unassigned) [Compound 23A, (18*R)-12-hydroxy-18-phenyl-5,6,7,8,9,18-hexahydro-10,17-methanodipyrido[1,2-b:2′,3′-k][1,2,5]triazacyclotridecine-11,13-dione] | 55 µM | > 10 µM
6 | O=C1c2c(O)c(=O)ccn2N2CN1CCCCCc1ncccc1[C@@H]2c1ccccc1 (single isomer, unassigned) [Compound 23B, (18*S)-12-hydroxy-18-phenyl-5,6,7,8,9,18-hexahydro-10,17-methanodipyrido[1,2-b:2′,3′-k][1,2,5]triazacyclotridecine-11,13-dione] | 12.2 µM | > 1 µM
7 | O=C1c2c(O)c(=O)ccn2N2CN1C/C=C\CCc1ncccc1[C@H]2c1ccccc1 (single isomer, unassigned) [Compound 24A, (18*R,*Z)-12-hydroxy-18-phenyl-5,6,9,18-tetrahydro-10,17-methanodipyrido[1,2-b:2′,3′-k][1,2,5]triazacyclotridecine-11,13-dione] | 39.6 µM | > 10 µM
8 | O=C1c2c(O)c(=O)ccn2N2CN1C/C=C\CCc1ncccc1[C@@H]2c1ccccc1 (single isomer, unassigned) [Compound 24B, (18*S,*Z)-12-hydroxy-18-phenyl-5,6,9,18-tetrahydro-10,17-methanodipyrido[1,2-b:2′,3′-k][1,2,5]triazacyclotridecine-11,13-dione] | 1.53 µM | > 1 µM
9 | O=C1c2c(O)c(=O)ccn2N2CN1C/C=C\COc1ccc(F)cc1[C@H]2c1cccc(F)c1 (single isomer, unassigned) [Compound 25A, (18*R,Z)-2-fluoro-18-(3-fluorophenyl)-12-hydroxy-6,9-dihydro-18H-10,17-methanobenzo[b]pyrido[1,2-f][1]oxa[5,6,9]triazacyclotridecine-11,13-dione] | 9.8 µM | > 2 µM
10 | O=C1c2c(O)c(=O)ccn2N2CN1C/C=C\COc1ccc(F)cc1[C@@H]2c1cccc(F)c1 (single isomer, unassigned) [Compound 25B, (18*S,Z)-2-fluoro-18-(3-fluorophenyl)-12-hydroxy-6,9-dihydro-18H-10,17-methanobenzo[b]pyrido[1,2-f][1]oxa[5,6,9]triazacyclotridecine-11,13-dione] | 0.011 µM | > 2 µM
11 | O=C1c2c(O)c(=O)ccn2N2CN1C/C=C\COc1ccccc1[C@H]2c1cccnc1 (single isomer, unassigned) [Compound 26A, (18*R,*Z)-12-hydroxy-18-(pyridin-3-yl)-6,9-dihydro-18H-10,17-methanobenzo[b]pyrido[1,2-f][1]oxa[5,6,9]triazacyclotridecine-11,13-dione] | 0.394 µM | > 2 µM
12 | O=C1c2c(O)c(=O)ccn2N2CN1C/C=C\COc1ccccc1[C@@H]2c1cccnc1 (single isomer, unassigned) [Compound 26B, (18*S,*Z)-12-hydroxy-18-(pyridin-3-yl)-6,9-dihydro-18H-10,17-methanobenzo[b]pyrido[1,2-f][1]oxa[5,6,9]triazacyclotridecine-11,13-dione] | 40.1 µM | > 4 µM
13 | O=C1c2c(O)c(=O)ccn2N2CN1C/C=C\COc1cccnc1[C@H]2c1ccccc1 (single isomer, unassigned) [Compound 27A, (18*R,*Z)-12-hydroxy-18-phenyl-6,9-dihydro-18H-10,17-methanodipyrido[3,2-b:1′,2′-f][1]oxa[5,6,9]triazacyclotridecine-11,13-dione] | 0.094 µM | > 2 µM
14 | O=C1c2c(O)c(=O)ccn2N2CN1C/C=C\COc1cccnc1[C@@H]2c1ccccc1 (single isomer, unassigned) [Compound 27B, (18*S,*Z)-12-hydroxy-18-phenyl-6,9-dihydro-18H-10,17-methanodipyrido[3,2-b:1′,2′-f][1]oxa[5,6,9]triazacyclotridecine-11,13-dione] | 45.7 µM | > 20 µM
15 | O=C1c2c(O)c(=O)ccn2N2CN1CC/C=C\COc1cccc3c1[C@H]2c1ccccc1CC3 (single isomer, unassigned) [Compound 28A] | 5.95 µM | > 20 µM
16 | O=C1c2c(O)c(=O)ccn2N2CN1CC/C=C\COc1cccc3c1[C@@H]2c1ccccc1CC3 (single isomer, unassigned) [Compound 28B] | 0.006 µM | > 0.4 µM
17 | C[C@@H]1/C=C/COc2ccccc2[C@@H](c2ccccc2)N2CN1C(=O)c1c(O)c(=O)ccn12 (single isomer, unassigned) [Compound 29AA, (9*R, 18*R, E)-12-hydroxy-9-methyl-18-phenyl-6,9-dihydro-18H-10,17-methanobenzo[b]pyrido[1,2-f][1]oxa[5,6,9]triazacyclotridecine-11,13-dione] | > 3 µM | > 2 µM
18 | C[C@H]1/C=C/COc2ccccc2[C@@H](c2ccccc2)N2CN1C(=O)c1c(O)c(=O)ccn12 (single isomer, unassigned) [Compound 29AB, (9*S, 18*R, E)-12-hydroxy-9-methyl-18-phenyl-6,9-dihydro-18H-10,17-methanobenzo[b]pyrido[1,2-f][1]oxa[5,6,9]triazacyclotridecine-11,13-dione] | 0.0057 µM | > 0.2 µM
19 | C[C@@H]1/C=C/COc2ccccc2[C@H](c2ccccc2)N2CN1C(=O)c1c(O)c(=O)ccn12 (single isomer, unassigned) [Compound 29BA, (9*R, 18*S, E)-12-hydroxy-9-methyl-18-phenyl-6,9-dihydro-18H-10,17-methanobenzo[b]pyrido[1,2-f][1]oxa[5,6,9]triazacyclotridecine-11,13-dione] | 1.71 µM | 83.1 µM
20 | C[C@H]1/C=C/COc2ccccc2[C@H](c2ccccc2)N2CN1C(=O)c1c(O)c(=O)ccn12 (single isomer, unassigned) [Compound 29BB, (9*S, 18*S, E)-12-hydroxy-9-methyl-18-phenyl-6,9-dihydro-18H-10,17-methanobenzo[b]pyrido[1,2-f][1]oxa[5,6,9]triazacyclotridecine-11,13-dione] | 0.008 µM | > 2 µM
21 | O=C1c2c(O)c(=O)ccn2N2CN1CCCCOc1ccc(F)cc1[C@H]2c1ccccc1 (single isomer, unassigned) [Compound 30A, (18*R)-2-fluoro-12-hydroxy-18-phenyl-6,7,8,9-tetrahydro-18H-10,17-methanobenzo[b]pyrido[1,2-f][1]oxa[5,6,9]triazacyclotridecine-11,13-dione] | > 1 µM | > 2 µM
22 | O=C1c2c(O)c(=O)ccn2N2CN1CCCCOc1ccc(F)cc1[C@@H]2c1ccccc1 (single isomer, unassigned) [Compound 30B, (18*S)-2-fluoro-12-hydroxy-18-phenyl-6,7,8,9-tetrahydro-18H-10,17-methanobenzo[b]pyrido[1,2-f][1]oxa[5,6,9]triazacyclotridecine-11,13-dione] | 0.015 µM | > 2 µM
23 | O=C1c2c(O)c(=O)ccn2N2CN1C1(/C=C/COc3cc(F)cc4c3[C@H]2c2ccccc2SC4)CCC1 (single isomer, unassigned) [Compound 180B, (17a′*S,*E)-24′-fluoro-12′-hydroxy-2′,17a′-dihydro-6′H-spiro[cyclobutane-1,9′-[3,4](epiprop[1]en[1]yl[3]ylidene)[10,17]methanobenzo[6,7]thiepino[4,5-c]pyrido[1,2-f][1]oxa[5,6,9]triazacyclotridecine]-11′,13′-dione] | 0.00036 µM | –
24 | O=C1c2c(O)c(=O)ccn2N2CN1[C@H]1C[C@H]1CCOc1cccc3c1[C@H]2c1ccccc1SC3 (stereo in doubt) [Compound 166B, cis-(11a*RS,12a*RS,13S,20a*S)-15-hydroxy-6,11,11a,12,12a,20a-hexahydro-10H-7,8-(epiprop[1]en[1]yl[3]ylidene)-13,20-methanobenzo[6,7]thiepino[4,5-c]cyclopropa[j]pyrido[1,2-f][1]oxa[5,6,9]triazacyclotridecine-14,16-dione] | 0.028 µM | –
25 | CC[C@H]1/C=C/COc2cccc3c2[C@@H](c2ccccc2SC3)N2CN1C(=O)c1c(O)c(=O)ccn12 [Compound 92BA, (9S,17aS,E)-9-ethyl-12-hydroxy-2,6,9,17a-tetrahydro-3,4-(epiprop[1]en[1]yl[3]ylidene)-10,17-methanobenzo[6,7]thiepino[4,5-c]pyrido[1,2-f][1]oxa[5,6,9]triazacyclotridecine-11,13-dione] | 0.0007 µM | –
